Test results: article PMC9774939, “Optimization of Pyrazole Compounds as Antibiotic Adjuvants Active against Colistin- and Carbapenem-Resistant Acinetobacter baumannii” (Antibiotics, 2022)

Structure (SMILES)	melting point [°C]
N#Cc1c(C(=O)NC23CC4CC(CC(C4)C2)C3)nn(-c2ccccc2)c1-n1cccc1	227 to 229
Cc1c(C(=O)NCc2ccc(F)cc2)nn(-c2ccc(Cl)c(Cl)c2)c1-n1cccc1	148 to 151
CN1CCN(C(=O)c2cnn(C)c2-n2cccc2)CC1 [Compound 3, (4-Methylpiperazin-1-yl)[1-methyl-5-(1H-pyrrol-1-yl)-1H-pyrazol-4-yl]methanone]	109 to 111
CN1CCN(C(=O)c2cnn(-c3ccccc3)c2-n2cccc2)CC1 [Compound 4, (4-Methylpiperazin-1-yl)[1-phenyl-5-(1H-pyrrol-1-yl)-1H-pyrazol-4-yl]methanone]	156 to 158
O=C(NN1CCCCC1)c1cnn(-c2ccccc2)c1-n1cccc1 [Compound 5, 1-Phenyl-N-(piperidin-1-yl)-5-(1H-pyrrol-1-yl)-1H-pyrazole-4-carboxamide]	165 to 167
O=C(Nc1ccc(Cl)cc1)c1cnn(-c2ccccc2)c1-n1cccc1 [Compound 6, N-(4-Chlorophenyl)-1-phenyl-5-(1H-pyrrol-1-yl)-1H-pyrazole-4-carboxamide]	197 to 198
O=C(c1cnn(-c2ccccc2)c1-n1cccc1)N1CCN(c2ncccn2)CC1 [Compound 7, [1-Phenyl-5-(1H-pyrrol-1-yl)-1H-pyrazol-4-yl][4-(pyrimidin-2-yl)piperazin-1-yl]methanone]	218 to 219
COC(=O)CNC(=O)c1cnn(-c2ccccc2)c1-n1cccc1 [Compound 11, Methyl [[[1-Phenyl-5-(1H-pyrrol-1-yl)-1H-pyrazol-4-yl]carbonyl]amino]acetate]	139 to 141
CCOC(=O)[C@H](C)NC(=O)c1cnn(-c2ccccc2)c1-n1cccc1 [Compound 12, Ethyl (S)-2-[[[1-Phenyl-5-(1H-pyrrol-1-yl)-1H-pyrazol-4-yl]carbonyl]amino]propanoate]	90 to 92
CCOC(=O)[C@H](C)NC(=O)CNC(=O)c1cnn(-c2ccccc2)c1-n1cccc1 [Compound 18, N-[N-[[1-Phenyl-5-(1H-pyrrol-1-yl)-1H-pyrazol-4-yl]carbonyl]glycyl]-L-alanine Ethyl Ester]	116 to 117
CC(C)(C)OC(=O)Nc1c(C(=O)NCc2ccc(Br)cc2)cnn1-c1ccc([N+](=O)[O-])cc1 [Compound 21, N-(4-Bromobenzyl)-5-(tert-butoxycarbonylamino)-1-(4-nitrophenyl)-1H-pyrazole-4-carboxamide]	169 to 171
O=C(NC12CC3CC(CC(O)(C3)C1)C2)c1cc(-n2cccc2)n(-c2ccccc2)n1 [Compound 23, N-(Adamantan-3-ol-1-yl)-1-phenyl-5-(1H-pyrrol-1-yl)-1H-pyrazole-3-carboxamide]	217 to 221
CC(C)(C)OC(=O)[C@H](Cc1ccccc1)NC(=O)c1nn(-c2ccccc2)c(-n2cccc2)c1C#N [Compound 25, tert-Butyl (S)-3-Phenyl-2-[[[4-cyano-1-phenyl-5-(1H-pyrrol-1-yl)-1H-pyrazol-3-yl]carbonyl]amino]propanoate]	93 to 94
CCOC(=O)N1CCN(C(=O)c2nn(-c3ccccc3)c(-n3cccc3)c2C)CC1 [Compound 26, (4-Ethoxycarbonylpiperazin-1-yl)[4-methyl-1-phenyl-5-(1H-pyrrol-1-yl)-1H-pyrazol-3-yl]methanone]	130 to 131
Cc1c(C(=O)NCc2ccc3c(c2)OCO3)nn(-c2ccc(Cl)cc2)c1-n1cccc1 [Compound 29, N-(Benzo[d][1,3]dioxol-5-ylmethyl)-1-(4-chlorophenyl)-4-methyl-5-(1H-pyrrol-1-yl)-1H-pyrazole-3-carboxamide]	144 to 148
Cc1c(C(=O)N2CCOCC2)nn(-c2ccc(Cl)cc2)c1-n1cccc1 [Compound 30, [1-(4-Chlorophenyl)-4-methyl-5-(1H-pyrrol-1-yl)-1H-pyrazol-3-yl](morpholin-4-yl)methanone]	174 to 177
CCOC(=O)c1ccc(NC(=O)c2nn(-c3ccc(Cl)cc3)c(-n3cccc3)c2C)cc1 [Compound 32, Ethyl 4-[[[1-(4-Chlorophenyl)-4-methyl-5-(1H-pyrrol-1-yl)-1H-pyrazol-3-yl]carbonyl]amino]benzoate]	168 to 170
Cc1c(C(=O)NCc2ccncc2)nn(-c2ccc(Cl)cc2)c1-n1cccc1 [Compound 33, 1-(4-Chlorophenyl)-4-methyl-N-(pyridin-4-ylmethyl)-5-(1H-pyrrol-1-yl)-1H-pyrazole-3-carboxamide]	189 to 193
Cc1c(C(=O)N(C)Cc2ccccc2)nn(-c2ccc(Cl)cc2)c1-n1cccc1 [Compound 34, N-Benzyl-1-(4-chlorophenyl)-N,4-dimethyl-5-(1H-pyrrol-1-yl)-1H-pyrazole-3-carboxamide]	104 to 108
N#Cc1c(C(=O)NCc2ccncc2)nn(-c2ccc(Cl)cc2)c1-n1cccc1 [Compound 35, 1-(4-Chlorophenyl)-4-cyano-N-(pyridin-4-ylmethyl)-5-(1H-pyrrol-1-yl)-1H-pyrazole-3-carboxamide]	85 to 88
Cc1c(C(=O)Nc2nc(-c3ccc(F)cc3)cs2)nn(-c2ccc(Cl)c(Cl)c2)c1-n1cccc1 [Compound 37, 1-(3,4-Dichlorophenyl)-N-[4-(4-fluorophenyl)thiazol-2-yl]-4-methyl-5-(1H-pyrrol-1-yl)-1H-pyrazole-3-carboxamide]	207 to 210
Cc1c(C(=O)NCc2ccc3c(c2)OCO3)nn(-c2ccc(Cl)c(Cl)c2)c1-n1c(C)ccc1C [Compound 38, N-(Benzo[d][1,3]dioxol-5-ylmethyl)-1-(3,4-dichlorophenyl)-4-methyl-5-(2,5-dimethyl-1H-pyrrol-1-yl)-1H-pyrazole-3-carboxamide]	141 to 145
COC(=O)c1cccc(NC(=O)c2nn(-c3ccc(Cl)cc3)c(-n3cccc3)c2C)c1 [Compound 41, Methyl 3-[[[1-(4-Chlorophenyl)-4-methyl-5-(1H-pyrrol-1-yl)-1H-pyrazol-3-yl]carbonyl]amino]benzoate]	158 to 160
COC(=O)c1ccccc1NC(=O)c1nn(-c2ccc(Cl)cc2)c(-n2cccc2)c1C [Compound 43, Methyl 2-[[[1-(4-Chlorophenyl)-4-methyl-5-(1H-pyrrol-1-yl)-1H-pyrazol-3-yl]carbonyl]amino]benzoate]	217 to 219
Cc1c(C(=O)Nc2ccc(S(N)(=O)=O)cc2)nn(-c2ccc(Cl)cc2)c1-n1cccc1 [Compound 46, 1-(4-Chlorophenyl)-4-methyl-5-(1H-pyrrol-1-yl)-N-(4-sulfamoylphenyl)-1H-pyrazole-3-carboxamide]	238 to 239
CSc1ccc(NC(=O)c2nn(-c3ccc(Cl)cc3)c(-n3cccc3)c2C)cc1 [Compound 48, 1-(4-Chlorophenyl)-N-(4-methylthiophenyl)-4-methyl-5-(1H-pyrrol-1-yl)-1H-pyrazole-3-carboxamide]	102 to 105
